Literature values in patent US11945788B2, “Process for preparing pitolisant hydrochloride and solid-state forms thereof” (Nuray Chemicals Private Limited, priority 2021, dated 2024).

Question: What does the source list for `Cl.Clc1ccc(CCCOCCCN2CCCCC2)cc1` [Pitolisant hydrochloride, 1-{3-[3-(4-chlorophenyl)propoxy]propyl}piperidine hydrochloride]?
Answer: solubility in cyclohexane (solvent: cyclohexane): practically insoluble; solubility in ethanol (solvent: ethanol): soluble; solubility in methylene chloride (solvent: methylene chloride): soluble; solubility in water (solvent: water): soluble
